Reference: publication PMC2762271 (Journal of medicinal chemistry, 2009)

Columns and labels:
[1] = test system: L1210, FM3A, Molt4, CEM, and HeLa cell lines; assay: Antiproliferative activity, panel of five tumor cell lines; type: cell-based; settings: on average over the cell lines
tubulin = assay: Inhibition of tubulin polymerization; type: biochemical; settings: for fold less active than 5t as inhibitor of tubulin assembly: relative to 5t
L1210 = assay: Antiproliferative activity, L1210 cell line; type: cell-based; settings: Mus musculus, L1210, read-out: IC50 L1210

## COc1cc(C(=O)c2sc(Nc3ccc(F)cc3)nc2N)cc(OC)c1OC [5r]
[1]
  average fold reduction of potency relative to 5q (cell growth inhibition): 27 fold

## COc1cc(C(=O)c2sc(Nc3ccc(C)cc3)nc2N)cc(OC)c1OC [5t]
tubulin; relative to 4a
  times more potent than 4a (tubulin assembly): 5 times
tubulin; relative to CA-4
  times more potent than CA-4 (tubulin assembly): 2 times

## COc1ccc(Nc2nc(N)c(C(=O)c3cc(OC)c(OC)c(OC)c3)s2)cc1 [5u]
[1]
  average fold reduction of potency relative to 5q (cell growth inhibition): 83 fold

## COc1cc(C(=O)c2sc(Nc3ccc(Cl)cc3)nc2N)cc(OC)c1OC [5s]
[1]
  average fold reduction of potency relative to 5q (cell growth inhibition): 27 fold

## COc1cccc(Nc2nc(N)c(C(=O)c3ccccc3)s2)c1 [5f]
tubulin
  fold less active than 5t as inhibitor of tubulin assembly: 10 fold

## Nc1nc(Nc2ccccc2)sc1C(=O)c1ccccc1 [5a]
tubulin
  fold less active than 5t as inhibitor of tubulin assembly: 5 fold

## COc1ccc(/C=C\c2cc(OC)c(OC)c(OC)c2)cc1O [CA-4, combretastatin A-4]
L1210
  IC50: 2.8 ± 1.1 nM
